Data reported in ChEMBL document CHEMBL3217706, “Identification of CYP1A2 ligands by structure-based and ligand-based virtual screening” (Medchemcomm, 2011).

What follows are compounds tested against T1, Cytochrome P450 1A2 (Homo sapiens, UniProt P05177) (assay: Inhibition of human recombinant CYP1A2 EROD activity expressed in Escherichia coli JM109 assessed as inhibition of de-ethylation of 7-ethoxyresorufin to resorufin by spectrofluorometric analysis). Conditions: not given.
T1 sequence (P05177 whole entry): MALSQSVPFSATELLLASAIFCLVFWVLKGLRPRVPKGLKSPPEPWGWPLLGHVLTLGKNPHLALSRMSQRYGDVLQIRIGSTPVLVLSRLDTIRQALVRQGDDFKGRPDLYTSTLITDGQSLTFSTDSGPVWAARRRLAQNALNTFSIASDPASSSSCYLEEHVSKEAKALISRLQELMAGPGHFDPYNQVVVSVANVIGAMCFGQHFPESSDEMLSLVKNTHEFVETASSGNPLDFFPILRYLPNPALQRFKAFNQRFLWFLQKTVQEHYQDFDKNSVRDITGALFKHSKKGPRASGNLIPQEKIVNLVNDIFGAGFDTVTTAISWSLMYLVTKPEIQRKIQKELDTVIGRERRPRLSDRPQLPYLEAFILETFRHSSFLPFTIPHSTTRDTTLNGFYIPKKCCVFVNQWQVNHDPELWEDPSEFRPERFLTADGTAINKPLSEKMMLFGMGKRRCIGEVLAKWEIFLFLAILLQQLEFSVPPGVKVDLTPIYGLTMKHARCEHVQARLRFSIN
Assay type: ADME

| SMILES | IC50 |
| --- | --- |
| COc1ccc(Nc2nc(-c3cccs3)cs2)cc1 | 72 nM |
| COc1ccc(C=O)cc1COc1c(Cl)cc(Cl)cc1Cl | 57 nM |
| N#CC1=C(N)Oc2c(ccc3ccccc23)C1c1ccc2c(c1)OCC2 (centres undefined) | 112 nM |
| C(=N\n1cnnc1)/c1ccc(-c2cccc3ccccc23)o1 | 48 nM |
| Brc1ccc2c3c(cccc13)-c1nc3ccccc3nc1-2 | 22 nM |
| O=[N+]([O-])c1ccc2nc3c(nc2c1)-c1cccc2cccc-3c12 | 21 nM |

Other lines, results leading:

| IC50 | SMILES |
| --- | --- |
| 231 nM | Cc1nn(-c2ccccc2)c2nc(C(F)(F)F)cc(C(F)(F)F)c12 |
| 49 nM | CN1C(=O)/C(=C2\NC(=S)NC2=O)c2cc(Br)ccc21 |
| 16 nM | Cn1c(=O)cc2c3c(c(N)ccc31)C(=O)c1ccccc1-2 |

Each compound was assayed against T2, CYP1A2 (Homo sapiens, UniProt P05177) (assay: Inhibition of human recombinant CYP1A2 EROD activity expressed in Escherichia coli JM109 assessed as inhibition of de-ethylation of 7-ethoxyresorufin to resorufin at 0.3 uM by spectrofluorometric analysis). Conditions: recombinant human CYP1A2 expressed in Escherichia coli JM109, probe 7-ethoxyresorufin.
T2 sequence (P05177 whole entry): T1 sequence (P05177 whole entry)
Assay type: ADME

| SMILES | inhibition at 0.3 µM |
| --- | --- |
| COc1ccc(Nc2nc(-c3cccs3)cs2)cc1 | > 50% |
| COc1ccc(C=O)cc1COc1c(Cl)cc(Cl)cc1Cl | > 50% |
| N#CC1=C(N)Oc2c(ccc3ccccc23)C1c1ccc2c(c1)OCC2 (centres undefined) | > 50% |
| C(=N\n1cnnc1)/c1ccc(-c2cccc3ccccc23)o1 | > 50% |
| Brc1ccc2c3c(cccc13)-c1nc3ccccc3nc1-2 | > 50% |
| O=[N+]([O-])c1ccc2nc3c(nc2c1)-c1cccc2cccc-3c12 | > 50% |

The next lines start with the values.

| inhibition at 0.3 µM | SMILES |
| --- | --- |
| > 50% | Cc1nn(-c2ccccc2)c2nc(C(F)(F)F)cc(C(F)(F)F)c12 |
| > 50% | CN1C(=O)/C(=C2\NC(=S)NC2=O)c2cc(Br)ccc21 |
| > 50% | Cn1c(=O)cc2c3c(c(N)ccc31)C(=O)c1ccccc1-2 |
| > 50% | O=c1cc(-c2ccccc2)oc2c1ccc1ccccc12 [ALPHA-NAPHTHOFLAVONE] |
